Tests used:
Type in all cases: functional
Aspergillus versicolor = test: Antifungal activity against 0.4x10'4 to 5x10^4 CFU/ml Aspergillus versicolor after 48 hrs by CLSI M38-A broth microdilution method
Aspergillus oryzae = test: Antifungal activity against 0.4x10'4 to 5x10^4 CFU/ml Aspergillus oryzae after 48 hrs by CLSI M38-A broth microdilution method
Fusarium oxysporum = test: Antifungal activity against 0.4x10'4 to 5x10^4 CFU/ml Fusarium oxysporum after 48 hrs by CLSI M38-A broth microdilution method
Aspergillus niger = test: Antifungal activity against 0.4x10'4 to 5x10^4 CFU/ml Aspergillus niger after 48 hrs by CLSI M38-A broth microdilution method
Aspergillus sp. = test: Antifungal activity against 0.4x10'4 to 5x10^4 CFU/ml Aspergillus sp. after 48 hrs by CLSI M38-A broth microdilution method
Fusarium sp. = test: Antifungal activity against 0.4x10'4 to 5x10^4 CFU/ml Fusarium sp. after 48 hrs by CLSI M38-A broth microdilution method
Aspergillus flavus = test: Antifungal activity against 0.4x10'4 to 5x10^4 CFU/ml Aspergillus flavus after 48 hrs by CLSI M38-A broth microdilution method
Fusarium verticillioides = test: Antifungal activity against 0.4x10'4 to 5x10^4 CFU/ml Fusarium moniliforme after 48 hrs by CLSI M38-A broth microdilution method
Fusarium solani = test: Antifungal activity against 0.4x10'4 to 5x10^4 CFU/ml Fusarium solani after 48 hrs by CLSI M38-A broth microdilution method
Fusarium avenaceum = test: Antifungal activity against 0.4x10'4 to 5x10^4 CFU/ml Fusarium avenaceum after 48 hrs by CLSI M38-A broth microdilution method
Aspergillus fumigatus = test: Antifungal activity against 0.4x10'4 to 5x10^4 CFU/ml Aspergillus fumigatus after 48 hrs by CLSI M38-A broth microdilution method
Fusarium poae = test: Antifungal activity against 0.4x10'4 to 5x10^4 CFU/ml Fusarium poae after 48 hrs by CLSI M38-A broth microdilution method

C[C@@H]1C/C=C/C=C/C=C/C=C/[C@H](O[C@@H]2O[C@H](C)[C@@H](O)[C@H](N)[C@@H]2O)C[C@@H]2O[C@](O)(C[C@@H](O)C[C@H]3O[C@@H]3/C=C/C(=O)O1)C[C@H](O)[C@H]2C(=O)O [NATAMYCIN]
4 µg/mL: MIC (Fusarium oxysporum) | MIC (Fusarium sp.) | MIC50 (Fusarium sp.) | MIC (Fusarium verticillioides) | MIC50 (Fusarium verticillioides) | MIC (Fusarium solani) | MIC50 (Fusarium solani) | MIC (Aspergillus fumigatus) | MIC50 (Aspergillus fumigatus) | MIC90 (Aspergillus fumigatus) | MIC (Fusarium poae)
0.25 µg/mL: MIC (Aspergillus niger)
32 µg/mL: MIC90 (Aspergillus versicolor) | MIC50 (Aspergillus oryzae) | MIC90 (Aspergillus oryzae) | MIC50 (Aspergillus sp.) | MIC90 (Aspergillus sp.) | MIC50 (Aspergillus flavus) | MIC90 (Aspergillus flavus)
8 µg/mL: MIC50 (Aspergillus versicolor) | MIC90 (Fusarium sp.) | MIC90 (Fusarium verticillioides) | MIC90 (Fusarium solani) | MIC50 (Fusarium avenaceum) | MIC90 (Fusarium avenaceum)

— ChEMBL document CHEMBL1649133, “In vitro comparison of the efficacies of natamycin and silver nitrate against ocular fungi” (2009)
